Experimental data published in PubChem BioAssay AID1918953 (Molecular Pharmacology Branch, DTP, NCI, 2023).
Several values for one entry are separate records, joined by “and”; a condition that tells them apart may be missing. Equal values may be shown once.

Test system: MDA-MB-231 complex spheroid viability
Test: Anticancer human tumor MDA-MB-231/ATCC cell line growth inhibition;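 note: drug exposure lasted 7 days starting on day 3 of spheroid growth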
Conditions: for viability, T/C: stronger effect = lower value; active = viability on the fitted dose curve at most 10% of control; inactive = the rest
Method in brief: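 Drug combinations with the LSD1 inhibitor iadademstat tested on tumor cells co-cultured as spheroids with endothelial cells and mesenchymal stem cells. Concentrations descended in half-log increments from clinical Cmax or 10 microM.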

[1] = curve of first compound, second compound 0.1 µM
[2] = curve of first compound, second compound 0.316 µM
[3] = curve of first compound, second compound 1 µM
[4] = curve of first compound, second compound 3.16 µM
[5] = curve of first compound, second compound 10 µM
[6] = second compound 0.1 µM, first compound 0.0316 µM
[7] = second compound 0.1 µM, first compound 0.1 µM
[8] = second compound 0.1 µM, first compound 0.316 µM
[9] = second compound 0.1 µM, first compound 1 µM
[10] = second compound 0.316 µM, first compound 0.0316 µM
[11] = second compound 0.316 µM, first compound 0.1 µM
[12] = second compound 0.316 µM, first compound 0.316 µM
[13] = second compound 0.316 µM, first compound 1 µM
[14] = second compound 1 µM, first compound 0.0316 µM
[15] = second compound 1 µM, first compound 0.1 µM
[16] = second compound 1 µM, first compound 0.316 µM
[17] = second compound 1 µM, first compound 1 µM
[18] = second compound 3.16 µM, first compound 0.0316 µM
[19] = second compound 3.16 µM, first compound 0.1 µM
[20] = second compound 3.16 µM, first compound 0.316 µM
[21] = second compound 3.16 µM, first compound 1 µM
[22] = second compound 10 µM, first compound 0.0316 µM
[23] = second compound 10 µM, first compound 0.1 µM
[24] = second compound 10 µM, first compound 0.316 µM
[25] = second compound 10 µM, first compound 1 µM
[26] = second compound 0.1 µM, first compound 3.16 µM
[27] = second compound 0.1 µM, first compound 10 µM
[28] = second compound 0.316 µM, first compound 3.16 µM
[29] = second compound 0.316 µM, first compound 10 µM
[30] = second compound 1 µM, first compound 3.16 µM
[31] = second compound 1 µM, first compound 10 µM
[32] = second compound 3.16 µM, first compound 3.16 µM
[33] = second compound 3.16 µM, first compound 10 µM
[34] = second compound 10 µM, first compound 3.16 µM
[35] = second compound 10 µM, first compound 10 µM

O=C(C=Cc1cccc(S(=O)(=O)Nc2ccccc2)c1)NO + NC1CC1c1ccc(-c2cccc(O)c2)cc1
< 9.49 nM: IC50 [4] | IC50 [5]
20.3 nM: IC50 [1]
11.4 nM: IC50 [3]
inactive: viability, T/C (second compound 0.1 µM, first compound 0.00949 µM) 61.6% | viability, T/C (second compound 0.1 µM, first compound 0.03 µM) 44% | viability, T/C (second compound 0.1 µM, first compound 0.0949 µM) 31.3% | viability, T/C (second compound 0.1 µM, first compound 0.3 µM) 19.1% | viability, T/C (second compound 0.1 µM, first compound 0.949 µM) 1.09% | viability, T/C (second compound 0.1 µM, first compound 3 µM) 74.2% | viability, T/C (second compound 0.316 µM, first compound 0.00949 µM) 55.9% | viability, T/C (second compound 0.316 µM, first compound 0.03 µM) 35.5% | viability, T/C (second compound 0.316 µM, first compound 0.0949 µM) 24.9% | viability, T/C (second compound 0.316 µM, first compound 0.3 µM) 17.7% | viability, T/C (second compound 0.316 µM, first compound 0.949 µM) 0.33% | viability, T/C (second compound 0.316 µM, first compound 3 µM) 56.4% | viability, T/C (second compound 1 µM, first compound 0.00949 µM) 52.5% | viability, T/C (second compound 1 µM, first compound 0.03 µM) 37.2% | viability, T/C (second compound 1 µM, first compound 0.0949 µM) 20.9% | viability, T/C (second compound 1 µM, first compound 0.3 µM) 19.7% | viability, T/C (second compound 1 µM, first compound 0.949 µM) 0.58% | viability, T/C (second compound 1 µM, first compound 3 µM) 56.9% | viability, T/C (second compound 3.16 µM, first compound 0.00949 µM) 47.9% | viability, T/C (second compound 3.16 µM, first compound 0.03 µM) 31.1% | viability, T/C (second compound 3.16 µM, first compound 0.0949 µM) 18.4% | viability, T/C (second compound 3.16 µM, first compound 0.3 µM) 15.8% | viability, T/C (second compound 3.16 µM, first compound 0.949 µM) 0.63% | viability, T/C (second compound 3.16 µM, first compound 3 µM) 58.4% | viability, T/C (second compound 10 µM, first compound 0.00949 µM) 31.4% | viability, T/C (second compound 10 µM, first compound 0.03 µM) 18.4% | viability, T/C (second compound 10 µM, first compound 0.0949 µM) 12.8% | viability, T/C (second compound 10 µM, first compound 0.3 µM) 5.16% | viability, T/C (second compound 10 µM, first compound 0.949 µM) 0.34% | viability, T/C (second compound 10 µM, first compound 3 µM) 37.3%
13.2 nM: IC50 [2]

CC1COCCN1c1cc(-c2ccnn2C)c2ccnc(-c3ccn[nH]3)c2n1 (configuration not stated)
inactive: viability, T/C (compound 0.00316 µM) 92.8% and 41% | viability, T/C (compound 0.01 µM) 80.5% and 30.1% | viability, T/C (compound 0.0316 µM) 51.5% and 19.3% | viability, T/C (compound 0.1 µM) 35.9% and 18.3% | viability, T/C (compound 0.316 µM) 31.8% and 18.9% | viability, T/C (compound 1 µM) 28.6% and 22.4%

COc1cc(C2c3cc4c(cc3C(OC3OC5COC(C)OC5C(O)C3O)C3COC(=O)C23)OCO4)cc(OC)c1O (configuration not stated)
108 nM and 30.6 nM: IC50 (curve of compound)
active: viability, T/C (compound 3 µM) 6.1% and 8.34%
inactive: viability, T/C (compound 0.00949 µM) 96.1% and 79.9% | viability, T/C (compound 0.03 µM) 76.1% and 47.9% | viability, T/C (compound 0.0949 µM) 49.9% and 32.6% | viability, T/C (compound 0.3 µM) 35% and 22.9% | viability, T/C (compound 0.949 µM) 13.5% and 10.3%

Nc1ncn(C2CC(O)C(CO)O2)c(=O)n1 (configuration not stated) + NC1CC1c1ccc(-c2cccc(O)c2)cc1
inactive: viability, T/C (second compound 0.1 µM, first compound 0.00316 µM) 74.5% | viability, T/C (second compound 0.1 µM, first compound 0.01 µM) 75.8% | viability, T/C [6] 76.2% | viability, T/C [7] 66.8% | viability, T/C [8] 55% | viability, T/C [9] 56% | viability, T/C (second compound 0.316 µM, first compound 0.00316 µM) 70.4% | viability, T/C (second compound 0.316 µM, first compound 0.01 µM) 63.5% | viability, T/C [10] 61.4% | viability, T/C [11] 51.8% | viability, T/C [12] 50.9% | viability, T/C [13] 49.6% | viability, T/C (second compound 1 µM, first compound 0.00316 µM) 60.5% | viability, T/C (second compound 1 µM, first compound 0.01 µM) 58.4% | viability, T/C [14] 57.3% | viability, T/C [15] 50.4% | viability, T/C [16] 47.7% | viability, T/C [17] 45% | viability, T/C (second compound 3.16 µM, first compound 0.00316 µM) 70.2% | viability, T/C (second compound 3.16 µM, first compound 0.01 µM) 63.4% | viability, T/C [18] 60.6% | viability, T/C [19] 53.3% | viability, T/C [20] 49.6% | viability, T/C [21] 43.7% | viability, T/C (second compound 10 µM, first compound 0.00316 µM) 49.7% | viability, T/C (second compound 10 µM, first compound 0.01 µM) 45.3% | viability, T/C [22] 43.9% | viability, T/C [23] 41.5% | viability, T/C [24] 40.3% | viability, T/C [25] 37.1%
251 nM: IC50 [4]
< 3.16 nM: IC50 [5]
183 nM: IC50 [3]
560 nM: IC50 [2]
> 1000 nM: IC50 [1]

Nc1ccn(C2OC(CO)C(O)C2(F)F)c(=O)n1 (configuration not stated)
inactive: viability, T/C (compound 0.000949 µM) 20.4% and 39.3% | viability, T/C (compound 0.003 µM) 17.2% and 31% | viability, T/C (compound 0.00949 µM) 15.5% and 19.9% | viability, T/C (compound 0.03 µM) 12.6% and 17.8%
5.47% and 14%: viability, T/C (compound 0.3 µM)
8.77% and 15.2%: viability, T/C (compound 0.0949 µM)
< 0.949 nM: IC50 (curve of compound)

CC(C)c1c(-c2ccccc2)nc2c(C#N)c[nH]n2c1=O + NC1CC1c1ccc(-c2cccc(O)c2)cc1
inactive: viability, T/C [6] 82.9% | viability, T/C [7] 84.7% | viability, T/C [8] 82% | viability, T/C [9] 85.4% | viability, T/C [26] 83% | viability, T/C [27] 82.4% | viability, T/C [10] 71% | viability, T/C [11] 69.8% | viability, T/C [12] 70.4% | viability, T/C [13] 63.1% | viability, T/C [28] 76.2% | viability, T/C [29] 62% | viability, T/C [14] 69.4% | viability, T/C [15] 69.5% | viability, T/C [16] 70.7% | viability, T/C [17] 63.6% | viability, T/C [30] 58.3% | viability, T/C [31] 52.9% | viability, T/C [18] 68.5% | viability, T/C [19] 65.1% | viability, T/C [20] 71% | viability, T/C [21] 68% | viability, T/C [32] 62.7% | viability, T/C [33] 56.5% | viability, T/C [22] 44.3% | viability, T/C [23] 42.9% | viability, T/C [24] 50.8% | viability, T/C [25] 51.5% | viability, T/C [34] 44.2% | viability, T/C [35] 45.2%
< 31.6 nM: IC50 [5]
> 10000 nM: IC50 [1] | IC50 [2] | IC50 [3] | IC50 [4]

O=C(c1cc(Cc2n[nH]c(=O)c3ccccc23)ccc1F)N1CCN(C(=O)C2CC2)CC1 + NC1CCC(NC2CC2c2ccccc2)CC1
2460 nM: IC50 [5]
> 10000 nM: IC50 [1] | IC50 [2] | IC50 [3]
inactive: viability, T/C [6] 101% | viability, T/C [7] 94.5% | viability, T/C [8] 87.5% | viability, T/C [9] 79.3% | viability, T/C [26] 66.8% | viability, T/C [27] 56.2% | viability, T/C [10] 98.9% | viability, T/C [11] 102% | viability, T/C [12] 93.5% | viability, T/C [13] 82.1% | viability, T/C [28] 66.1% | viability, T/C [29] 52.7% | viability, T/C [14] 93.1% | viability, T/C [15] 94.5% | viability, T/C [16] 84.3% | viability, T/C [17] 74.5% | viability, T/C [30] 67.1% | viability, T/C [31] 57.6% | viability, T/C [18] 80.8% | viability, T/C [19] 77.5% | viability, T/C [20] 74.2% | viability, T/C [21] 70.2% | viability, T/C [32] 56.8% | viability, T/C [33] 47.9% | viability, T/C [22] 64.4% | viability, T/C [23] 61.9% | viability, T/C [24] 63% | viability, T/C [25] 55.3% | viability, T/C [34] 47.4% | viability, T/C [35] 37.6%
7580 nM: IC50 [4]

CCN(c1cc(-c2ccc(CN3CCOCC3)cc2)cc(C(=O)NCc2c(C)cc(C)[nH]c2=O)c1C)C1CCOCC1
inactive: viability, T/C (compound 0.00949 µM) 90.6% and 108% | viability, T/C (compound 0.03 µM) 93.6% and 88.1% | viability, T/C (compound 0.0949 µM) 82.4% and 61.5% | viability, T/C (compound 0.3 µM) 74.9% and 42.3% | viability, T/C (compound 0.949 µM) 66.3% and 25.8% | viability, T/C (compound 3 µM) 57.7% and 15%

CC(C)CC(NC(=O)C(Cc1ccccc1)NC(=O)c1cnccn1)B(O)O (configuration not stated)
inactive: viability, T/C (compound 0.000316 µM) 104% and 34.9%
active: viability, T/C (compound 0.00316 µM) 1.86% and 0.16% | viability, T/C (compound 0.01 µM) 0.35% and 0.17% | viability, T/C (compound 0.0316 µM) 0.31% and 0.14% | viability, T/C (compound 0.1 µM) 0.31% and 0.17%
1.09 nM and < 0.316 nM: IC50 (curve of compound)
